# Patent US20110105491A1, “THIAZOLIDINE COMPOUNDS AS OREXIN RECEPTOR ANTAGONISTS” (priority 2008, published 2011)
# Read-outs that look alike come from different tables or passages of the source.
# Assays:
# [1] = biological target: T1, human orexin-1 receptor (Homo sapiens, UniProt O43613); assay: FLIPR calcium assay of orexin receptor antagonistic activity, CHO cells expressing human orexin-1 receptor; type: cell-based; settings: read-out: OX1 IC50
# T1 construct: expressed in transfected cells; host or cells: Chinese hamster ovary (CHO) cells
# T1 sequence (O43613 1-425): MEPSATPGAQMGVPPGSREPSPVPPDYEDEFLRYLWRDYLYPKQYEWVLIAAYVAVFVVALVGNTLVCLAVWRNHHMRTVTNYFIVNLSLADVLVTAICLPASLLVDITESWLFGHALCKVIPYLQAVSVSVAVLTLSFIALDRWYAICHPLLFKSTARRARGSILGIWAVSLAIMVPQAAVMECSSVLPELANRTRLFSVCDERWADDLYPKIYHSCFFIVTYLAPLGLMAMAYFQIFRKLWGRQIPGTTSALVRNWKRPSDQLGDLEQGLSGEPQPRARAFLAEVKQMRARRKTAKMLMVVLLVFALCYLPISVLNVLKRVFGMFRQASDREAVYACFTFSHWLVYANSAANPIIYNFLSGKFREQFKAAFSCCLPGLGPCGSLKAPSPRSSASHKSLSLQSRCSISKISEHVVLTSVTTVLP
# Method: (§1) The orexin receptor antagonistic activity of the compounds of formula (I) is determined in accordance with the following experimental method.
# (§2) Chinese hamster ovary (CHO) cells expressing the human orexin-1 receptor and the human orexin-2 receptor, respectively, are grown in culture medium (Ham F-12 with L-Glutamine) containing 300 μg/ml G418, […] penicillin, 100 μg/ml streptomycin and 10% heat inactivated fetal calf serum (FCS). The cells are seeded at 20′000 cells/well into 384-well black clear bottom sterile plates (Greiner). The seeded plates are incubated overnight at 37° C. in 5% CO2.
# (§3) Human orexin-A as an agonist is prepared as 1 mM stock solution in MeOH:water (1:1), diluted in HBSS containing 0.1% bovine serum albumin (BSA), NaHCO3: 0.375 g/l and 20 mM HEPES for use in the assay at a final concentration of 3 nM.
# (§4) Antagonists are prepared as 10 mM stock solution in DMSO, then diluted in 384-well plates using DMSO followed by a transfer of the dilutions into in HBSS containing 0.1% bovine serum albumin (BSA), NaHCO3: 0.375 g/l and 20 mM HEPES. On the day of the assay, 50 μl of staining buffer (HBSS containing 1% FCS, 20 mM HEPES, NaHCO3: 0.375 g/l, 5 mM probenecid (Sigma) and 3 μM of the fluorescent calcium indicator fluo-4 AM (1 mM stock solution in DMSO, containing 10% pluronic) is added to each well. The 384-well cell-plates are incubated for 50 min at 37° C. in 5% CO2 followed by equilibration at rt for 30-120 min before measurement.
# (§5) Within the Fluorescent Imaging Plate Reader (FLIPR Tetra, Molecular Devices), antagonists are added to the plate in a volume of 10 μl/well, incubated for 10 min and finally […] of agonist is added. Fluorescence is measured for each well at 1 second intervals, and the height of each fluorescence peak is compared to the height of the fluorescence peak induced by 3 nM orexin-A with vehicle in place of antagonist. For each antagonist, the IC50 value (the concentration of compound needed to inhibit 50% of the agonistic response) is determined and may be normalized using the obtained IC50 value of a on-plate reference compound (normalized values in Table 1 are indicated by an asterisk *). Optimized conditions were achieved by adjustment of pipetting speed and cell splitting regime. The calculated IC50 values of the compounds may fluctuate depending on the daily cellular assay performance. Fluctuations of this kind are known to those skilled in the art.
# [2] = biological target: T2, human orexin-2 receptor (Homo sapiens, UniProt O43614); assay: FLIPR calcium assay of orexin receptor antagonistic activity, CHO cells expressing human orexin-2 receptor; type: cell-based; settings: read-out: OX2 IC50
# T2 construct: expressed in transfected cells; host or cells: Chinese hamster ovary (CHO) cells
# T2 sequence (O43614 1-444): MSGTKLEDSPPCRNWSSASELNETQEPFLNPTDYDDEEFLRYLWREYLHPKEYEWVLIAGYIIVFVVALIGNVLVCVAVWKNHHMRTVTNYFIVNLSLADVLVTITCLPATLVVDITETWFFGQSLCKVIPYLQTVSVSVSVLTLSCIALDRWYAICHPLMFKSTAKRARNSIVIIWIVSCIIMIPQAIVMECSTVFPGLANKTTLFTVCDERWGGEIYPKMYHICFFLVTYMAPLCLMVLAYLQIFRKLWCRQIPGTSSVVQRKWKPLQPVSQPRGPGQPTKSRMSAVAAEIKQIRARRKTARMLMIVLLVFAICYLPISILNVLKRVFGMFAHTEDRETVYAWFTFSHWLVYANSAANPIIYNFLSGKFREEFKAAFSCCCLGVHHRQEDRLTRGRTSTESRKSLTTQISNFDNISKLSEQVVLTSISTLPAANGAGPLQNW
# Method: as §1, §2, §3, §4, §5
# [3] = test system: rat; settings: cited from earlier work
# [4] = test system: rat model; settings: cited from earlier work
# [5] = test system: rat model of post-traumatic stress disorder; settings: cited from earlier work
# [6] = 3 nM orexin-A as agonist, not normalized, *2/*3 = geometric mean of n = 2/3 values
SMILES,"IC50 [1, 6]","IC50 [2, 6]",IC50 [1],IC50 [2],also measured
"Cc1cccc(-c2sc(N(C)C)nc2C(=O)N2CCSC2CNC(=O)c2cccc3c2CCO3)c1 (racemic) [Example 128, rac-2,3-Dihydro-benzofuran-4-carboxylic acid [3-(2-dimethylamino-5-m-tolyl-thiazole-4-carbonyl)-thiazolidin-2-ylmethyl]-amide]",12 nM,14 nM,–,–,–
"CCc1onc(C)c1C(=O)NCC1SCCN1C(=O)c1nc(C)sc1-c1cccc(C)c1 (racemic) [Example 140, rac-5-Ethyl-3-methyl-isoxazole-4-carboxylic acid [3-(2-methyl-5-m-tolyl-thiazole-4-carbonyl)-thiazolidin-2-ylmethyl]-amide]",–,–,9 nM,9 nM,–
"COc1ncccc1C(=O)NCC1SCCN1C(=O)c1nc(C)sc1-c1cccc(C)c1 (racemic) [Example 160, rac-2-Methoxy-N-[3-(2-methyl-5-m-tolyl-thiazole-4-carbonyl)-thiazolidin-2-ylmethyl]-nicotinamide]",–,–,4 nM,15 nM,–
"CNC(=O)[C@@H](c1ccccc1)N1CCc2cc(OC)c(OC)cc2[C@@H]1CCc1ccc(C(F)(F)F)cc1 [(2R)-2-{(1S)-6,7-dimethoxy-1-[2-(4-trifluoromethyl-phenyl)-ethyl]-3,4-dihydro-1H-isoquinolin-2-yl}-N-methyl-2-phenyl-acetamide]",–,–,–,–,alertness (active wake and locomotion) [3]: decrease alertness; time spent in REM and NREM sleep [3]: dose-dependently increase the time spent in both REM and NREM sleep; memory function [4]: enhance memory function; activity in model of post-traumatic stress disorder [5]: active

# Second part, led by results:
"IC50 [1, 6]","IC50 [2, 6]",IC50 [1],IC50 [2],SMILES,also measured
8 nM,7 nM,–,–,"Cc1nc(C(=O)N2CCSC2CNC(=O)c2cccc3ncsc23)c(-c2ccc(C)c(F)c2)s1 (racemic) [Example 120, rac-Benzothiazole-7-carboxylic acid {3-[5-(3-fluoro-4-methyl-phenyl)-2-methyl-thiazole-4-carbonyl]-thiazolidin-2-ylmethyl}-amide]",–
11 nM,11 nM,–,–,"Cc1nc(C(=O)N2CCSC2CNC(=O)c2nn(C)c3ccccc23)c(-c2ccc(C)c(F)c2F)s1 (racemic) [Example 126, rac-1-Methyl-1H-indazole-3-carboxylic acid {3-[5-(2,3-difluoro-4-methyl-phenyl)-2-methyl-thiazole-4-carbonyl]-thiazolidin-2-ylmethyl}-amide]",–
–,–,5 nM,12 nM,"Cc1cccc(-c2sc(C)nc2C(=O)N2CCSC2CNC(=O)c2cnn(C)c2C(F)(F)F)c1 (racemic) [Example 142, rac-1-Methyl-5-trifluoromethyl-1H-pyrazole-4-carboxylic acid [3-(2-methyl-5-m-tolyl-thiazole-4-carbonyl)-thiazolidin-2-ylmethyl]-amide]",–
–,–,5 nM,41 nM,"Cc1cccc(-c2sc(C)nc2C(=O)N2CCSC2CNC(=O)c2cccc(C(F)(F)F)n2)c1 (racemic) [Example 162, rac-6-Trifluoromethyl-pyridine-2-carboxylic acid [3-(2-methyl-5-m-tolyl-thiazole-4-carbonyl)-thiazolidin-2-ylmethyl]-amide]",–
–,–,5 nM,8 nM,"Cc1cccc(-c2sc(C)nc2C(=O)N2CCSC2CNC(=O)c2nc(C)oc2C)c1 (racemic) [Example 163, rac-2,5-Dimethyl-oxazole-4-carboxylic acid [3-(2-methyl-5-m-tolyl-thiazole-4-carbonyl)-thiazolidin-2-ylmethyl]-amide]",–
–,–,6 nM,5 nM,"Cc1cccc(-c2sc(C)nc2C(=O)N2CCSC2CNC(=O)c2sc(C)nc2C)c1 (racemic) [Example 165, rac-2,4-Dimethyl-thiazole-5-carboxylic acid [3-(2-methyl-5-m-tolyl-thiazole-4-carbonyl)-thiazolidin-2-ylmethyl]-amide]",–
